Test results taken from PMC5376947, “Cytotoxicity of Zardaverine in Embryonal Rhabdomyosarcoma from a Costello Syndrome Patient” (Frontiers in Oncology, 2017).
Where two headings read alike, the source gives them in different places.

Tests used:
[1] = tested on: CS242 ERMS (initial) cells; experiment: CS242 ERMS (initial) cell viability assay, 72 h; type: cell-based, human; conditions: for IC50: Homo sapiens, Figure 5 subpopulations, mean ± SD of three curve fits
Method: Initially, patient-derived CS242 ERMS cells were established in culture in DMEM supplemented with 20% FBS, as described in Robbins et al. ([8]). […] After five passages, cells at 30% confluence were grown for a further 3 days in a T25 flask, followed by expansion into two 10 cm^2 dishes and continued growth and a media change every 3 days for a total of 9 days, after which time >70% confluence was reached. After removal of media by aspiration, cells were washed with PBS and detached by treatment with 0.25% trypsin. Detached cells were washed in media, pelleted at 200 × g for 5 min, and resuspended in freezing medium comprising 90% FBS and 10% DMSO. The resulting master cell bank (at passage 6 following expansion from T25, growth and detachment) was dispensed into 1-ml cryogenic vials at 1–5 million cells/vial, frozen at −80°C for 72 h, and transferred to vapor phase liquid nitrogen storage.

[2] = tested on: CS242 ERMS (screening) cells; experiment: CS242 ERMS (screening) cell viability assay, CellTiter-Glo, 72 h; conditions: for IC50 / viability at 18.8 µM: Homo sapiens; for viability at 18.8 µM: read-out: CS242 ERMS % Viability (max conc)
Method: To generate cells optimized for high-throughput screening (HTS), one vial of frozen cells from the CS242 ERMS (initial) master cell bank was thawed in a 37°C water bath for 2 min, diluted by dropwise addition of 10 volumes of PBS, pelleted at 200 × g for 5 min, resuspended in PBS, pelleted, resuspended in medium, and transferred to a T75 flask. Cells were grown to 70% confluence over 27 days, with media changes every 3 days. Cells were then detached by trypsin treatment as described above [see CS242 ERMS (Initial)] and split at 1:20 into T150 flasks, giving 20 individual cultures at passage 7. After growth for a further 27 days with media changes every 3 days, cells reached 70% confluence and were detached and frozen as described above [see CS242 ERMS (Initial)] to give a working cell bank at passage 8.
Cell growth in 384-well plates was assessed daily for 5 days to determine the optimal starting cell number giving progressive growth suitable for a 72-h cell viability assay. One vial of CS242 ERMS cells was thawed from the screening bank and grown in a T75 flask until confluence was >70%, after which cells were detached using trypsin and counted as described above [see CS242 ERMS (Zardaverine Resistant)].
Using an electronic 16-channel pipettor (Finnpipette Novus MCP16), 40 μl of each cell dilution was dispensed into two columns of a TC-treated opaque white 384-well plate, giving a range of 10,000 to 78 cells/well. Columns 1, 2, 23, and 24 were filled with media alone (40 μl/well). Five replicate plates were covered with MicroClime environmental lids (Labcyte) to minimize evaporation and incubated at 37°C, 5% CO2 for 24, 48, 72, 96, and 120 h, respectively. A sixth plate was prepared for determination of cell viability at the time of cell seeding. To determine cell viability, plates were allowed to cool to room temperature for 1 h after removal from 37°C incubation, 20 μl/well of CellTiter-Glo was added using a MicroFlo Select microplate reagent dispenser (BioTek, Winooski, VT, USA), and luminescence was measured after an additional 30 min at room temperature using an EnVision microplate reader (PerkinElmer, Waltham, MA, USA).
The IC50 of dactinomycin was determined using cells passaged once from the CS242 ERMS (screening) cell bank [see CS242 ERMS (Screening)]. Cells were thawed, grown to 70% confluence over 3 days in a T75 flask, detached by trypsin treatment, seeded at 1,250 cells in 30 μl of media/well in 384-well opaque white TC plates, and allowed to attach overnight. […] After 72 h of cell growth in the presence of dactinomycin, 20 μl of CellTiter-Glo was added, and cell viability was determined as described above (see Cell Viability Assay Development). Percent viability was determined from luminescence values using high controls (no dactinomycin) and low controls (media alone; no cells), and IC50 values were calculated using four-parameter dose–response curve fitting analysis in GraphPad Prism.
The 2,000-compound Microsource Spectrum library was screened using a fresh batch of CS242 ERMS (screening) cells for each HTS run, prepared as described above (see Cell Viability Assay Development). […] Media alone was added to low control (background) wells in columns 2 and 24. Plates were covered using MicroClime environmental lids (Labcyte), and cells were allowed to attach overnight (≤12 h) at 37°C in an atmosphere of 5% CO2.
Compounds were delivered to columns 3–22 of assay plates containing attached cells via an intermediate dilution. […] Likewise, DMSO was added to columns 1, 2, 23, and 24 for high and low controls, matching the 0.06% DMSO in the test wells.

[3] = molecular target: glucocorticoid receptor (GR) activation; parameters: method as in earlier work; conditions: 18 h treatment, ref [30], cited from earlier work
[4] = tested on: CS242 ERMS (zardaverine resistant) cells; experiment: CS242 ERMS (zardaverine resistant) cell viability assay, 72 h; type: cell-based; conditions: Homo sapiens, Figure 5 subpopulations
Method: Cells were detached by trypsin treatment, counted with a hemocytometer using trypan blue exclusion ([11]), and seeded at 212,000/well in 2 ml of growth media in a 6-well plate. […] After overnight attachment to the plate, the resulting cells at passage 9 were treated with zardaverine at 0.94 μM (~3 × IC50 obtained in 384-well plates) and incubated for […], with media (containing zardaverine) changed after 3 days. Cells were detached, split at 1:6 into a new 6-well plate, and the resulting cells at passage 10 were allowed to recover in the absence of zardaverine for 6 days, with a media change after 3 days. Cells were then treated with 15 μM zardaverine for 3 days, detached, split, and expanded into a T75 flask, and allowed to recover for 2 days in the absence of zardaverine. The resulting cells at passage 11 were treated with fresh media containing 15 μM zardaverine and incubated for 4 days at which time cells reached 70% confluence. […] One vial of cells from the master cell bank was then used to generate a working cell bank. Cells were thawed into a T75 flask, and immediately maintained in the presence of 15 μM zardaverine in media. Cells were grown for 9 days, with media changes every 3 days, detached, and split at 1:10 into T150 flasks, giving 10 individual cultures at passage 13.

[5] = 72 h, read-out: CS242 ERMS IC50, Table 4 analogs, 72 h, mean ± SD (n = 3)
[6] = 72 h, read-out: CS242 ERMS viability IC50, Table 3 PDE inhibitor panel, 72 h, top 18.8, 75 or 93.8 μM, mean ± SD (n = 3)
[7] = 72 h, read-out: IC50 CS242 ERMS (screening), Figure 4 cell line panel, 72 h, top 7.5 μM, mean ± SD of three curve fits
[8] = 72 h, read-out: IC50 CS242 ERMS (screening), Figure 5 subpopulations, 72 h, mean ± SD of three curve fits

SMILES | cell viability plateau at high concentrations in CS242 ERMS (initial) ([1]; 72 h dose-response) | IC50 ([1]; 72 h) | IC50 [2, 5] | IC50 [2, 6] | IC50 [2, 7] | IC50 [2, 8] | IC50 ([2]; 72 h, read-out: IC50 CS242 ERMS, Table 2 hit confirmation, 72 h, 16-point dose-response, top 7.5 μM, mean ± SD (n = 3)) | viability at 18.8 µM [2] | Fold selectivity ([2]; IC50 in CS242 fibroblasts/IC50 in CS242 ERMS) | killing of CS242 ERMS at high concentrations, in words ([2]; cell line panel dose-response, 72 h) | IC50 ([3]; read by the authors from PubChem dose-response data, read-out: IC50, inhibition of GR activation in engineered HeLa cells) | IC50 [4] | activity in CS242 ERMS (initial), in words ([1]; 72 h) | inhibition of viability in Spectrum library screen ([2]; 2.5 μM, 72 h, two replicate screens) | cell viability at the highest concentrations in CS242 ERMS ([2]; human, 72 h, 7.5 μM) | activity in GR activation screen, in words [3]
COc1cc(-c2ccc(=O)[nH]n2)ccc1OC(F)F [Zardaverine] | 40% | 901 ± 128 nM | 262 ± 15 nM | 409 ± 24.3 nM | 276 ± 17.6 nM | 449 ± 75.2 nM | 206 ± 4.9 nM | 10 ± 0.7% | >36.4 | complete killing | 300 nM | > 7500 nM | – | – | – | –
O=C1CN2Cc3c(ccc(Cl)c3Cl)N=C2N1 [Anagrelide] | – | > 7500 nM | 58 ± 4 nM | 68.1 ± 1.6 nM | 25.1 ± 2.8 nM | 93 ± 14.4 nM | – | 34.7 ± 1.5% | – | – | – | > 7500 nM | inactive | 81% | 25% | highly active
